What was measured:
[1] = Anti-inflammatory activity in Homo sapiens (human) RBCs assessed as prevention of hemolysis at 200 ug/mL after 30 min by UV-Vis spectrophotometric analysis relative to control; assay type: functional, Erythrocyte
[2] = In vitro antiarthritic activity assessed as inhibition of bovine serum albumin denaturation at 50 ug/mL after 20 min by UV-Visible spectrophotometric analysis relative to control; assay type: functional
[3] = In vitro antiarthritic activity assessed as inhibition of bovine serum albumin denaturation at 400 ug/mL after 20 min by UV-Visible spectrophotometric analysis relative to control; assay type: functional
[4] = In vitro antiarthritic activity assessed as inhibition of bovine serum albumin denaturation at 100 ug/mL after 20 min by UV-Visible spectrophotometric analysis relative to control; assay type: functional
[5] = Anti-inflammatory activity in Homo sapiens (human) RBCs assessed as prevention of hemolysis at 100 ug/mL after 30 min by UV-Vis spectrophotometric analysis relative to control; assay type: functional, Erythrocyte
[6] = In vitro antiarthritic activity assessed as inhibition of bovine serum albumin denaturation after 20 min by UV-Visible spectrophotometric analysis; assay type: functional
[7] = Anti-inflammatory activity in Homo sapiens (human) RBCs assessed as prevention of hemolysis at 10 ug/mL after 30 min by UV-Vis spectrophotometric analysis relative to control; assay type: functional, Erythrocyte
[8] = In vitro antiarthritic activity assessed as inhibition of bovine serum albumin denaturation at 200 ug/mL after 20 min by UV-Visible spectrophotometric analysis relative to control; assay type: functional
[9] = In vitro antiarthritic activity assessed as inhibition of bovine serum albumin denaturation at 800 ug/mL after 20 min by UV-Visible spectrophotometric analysis relative to control; assay type: functional
[10] = Anti-inflammatory activity in Homo sapiens (human) RBCs assessed as prevention of hemolysis at 50 ug/mL after 30 min by UV-Vis spectrophotometric analysis relative to control; assay type: functional, Erythrocyte
[11] = tested on: Erythrocyte; assay: Anti-inflammatory activity in Homo sapiens (human) RBCs assessed as prevention of hemolysis after 30 min by UV-Vis spectrophotometric analysis; assay type: functional, cell-based

Row | Compound | Activity [1] [%] | inhibition [2] [%] | inhibition [3] [%] | inhibition [4] [%] | Activity [5] [%] | inhibition [6] | Activity [7] [%] | inhibition [8] [%] | inhibition [9] [%] | Activity [10] [%] | inhibition [11]
1 | O=C(Cc1cccs1)NCCSCCOc1ccc2ccccc2c1-c1c(OCCSCCNC(=O)Cc2cccs2)ccc2ccccc12 | 86 | 23.6 | 73.3 | 42.2 | 72.8 | Dose-dependent effect | 50.2 | 59.1 | 87.4 | 61.7 | Dose-dependent effect
2 | C[C@]12C=CC(=O)C=C1CC[C@@H]1[C@@H]2[C@@H](O)C[C@@]2(C)[C@H]1CC[C@]2(O)C(=O)CO [PREDNISOLONE] | 91 |  |  |  | 84.8 |  | 46 |  |  | 57.9 | 
3 | O=C(Cn1cnnn1)NCCSCCOc1ccccc1-c1ccccc1OCCSCCNC(=O)Cn1cnnn1 | 89.4 | 21.6 | 76.3 | 42.2 | 75.3 | Dose-dependent effect | 54 | 65.1 | 91.9 | 63.3 | Dose-dependent effect
4 | O=C(NCCSCCOc1ccc2ccccc2c1-c1c(OCCSCCNC(=O)c2ccco2)ccc2ccccc12)c1ccco1 | 96.2 | 29.5 | 87.8 | 50.8 | 88.9 | Dose-dependent effect | 56.5 | 71.5 | 98.7 | 65.5 | Dose-dependent effect
5 | O=C(NCCSCCOc1ccccc1-c1ccccc1OCCSCCNC(=O)c1ccccc1)c1ccccc1 | 77.5 | 15.8 | 67.8 | 38.2 | 60.7 | Dose-dependent effect | 35.7 | 53 | 81.8 | 49 | Dose-dependent effect
6 | O=C(O)Cc1ccccc1Nc1c(Cl)cccc1Cl |  | 5.6 | 21.6 | 10.9 |  |  |  | 15.2 | 76.7 |  | 
7 | O=C(Cn1cnnn1)NCCSCCOc1ccc2ccccc2c1-c1c(OCCSCCNC(=O)Cn2cnnn2)ccc2ccccc12 | 91.6 | 19.6 | 74.1 | 39.6 | 82.5 | Dose-dependent effect | 61.9 | 67.1 | 94.2 | 69.7 | Dose-dependent effect
8 | O=C(NCCSCCOc1ccccc1-c1ccccc1OCCSCCNC(=O)c1ccco1)c1ccco1 | 94.1 | 25.7 | 83.1 | 46.6 | 84.7 | Dose-dependent effect | 55.2 | 68.8 | 97.2 | 62.9 | Dose-dependent effect
9 | O=C(NCCSCCOc1ccc2ccccc2c1-c1c(OCCSCCNC(=O)c2ccccc2)ccc2ccccc12)c1ccccc1 | 79.4 | 19.5 | 65.8 | 30.3 | 63.6 | Dose-dependent effect | 34.5 | 52.3 | 82.7 | 51.4 | Dose-dependent effect
10 | O=C(Cc1cccs1)NCCSCCOc1ccccc1-c1ccccc1OCCSCCNC(=O)Cc1cccs1 | 83.3 | 28.3 | 69.6 | 34.9 | 67.2 | Dose-dependent effect | 47.3 | 41.1 | 84.8 | 58.6 | Dose-dependent effect

Source: ChEMBL document CHEMBL3044854, “Synthesis and biological evaluation of diamide derivatives of (S)-BINOL and biphenyl as potential anti-inflammatory/anti-arthritic agents” (2013)
